Measured values from patent US8198456B2, “Dihydropyridine derivatives as useful as protein kinase inhibitors” (Bayer Intellectual Property GmbH, priority 2006, dated 2012).

Biological target: T1, recombinant human c-MET kinase enzyme domain (Homo sapiens, UniProt P08581)
T1 construct: Recombinant c-Met kinase domain (amino acids 960-1390); His (N); made in house; host or cells: baculovirus expression system (insect cells; SF21 is named only for the alternative format)
Assay: c-MET receptor tyrosine kinase Homogeneous Time Resolved Fluorescence assay (HTRF)
Type: biochemical
Conditions: Biological Example 1 and/or Biological Example 2
Description: Recombinant c-Met kinase domain (amino acids 960-1390) was produced in a baculovirus expression vector as an N-terminal His-tagged fusion protein and purified on a NiNTA column. The resulting purified enzyme was then used in the following c-Met Homogeneous Time Resolved Fluorescence assay (HTRF) to find compounds of the invention and to perform initial activity determinations. Specifically, this assay measures the ability of compounds of the invention to inhibit the phosphorylation of a randomly synthesized, biotinylated heterocopolymeric polypeptide composed of glutamic acid and tyrosine, with an average length of 100 aa. The assay analyzes the amount of phosphorylated polypeptide produced.
The enzymatic phosphorylation of the biotinylated heterocopolymeric polypeptide was performed in a black 384-well plate at ambient temperature in a reaction mixture containing 50 mM HEPES (pH 7.4), 5 mM MgCl2, 5 mM MnCl2, 0.01% Tween-20, and 2 mM DTT, […] recombinant human c-MET kinase enzyme domain, 37 nM biotinylated heterocopolymeric polypeptide composed of glutamic acid and tyrosine, 20 μM ATP, 1% DMSO in the absence or presence of a compound of the invention. The reaction was stopped after a 20-minute incubation by the addition of 80 mM EDTA.
The formation of phosphorylated heterocopolymeric, biotinylated polypeptide was quantified with the HTRF assay technology using an anti-phosphotyrosine antibody, PT66, conjugated to europium cryptate, mixed with a streptavidin-XL665 conjugate. Reduced or inhibited phosphorylation of the heterocopolymeric, biotinylated polypeptide prevents the anti-phosphotyrosine antibody from binding to the peptide, resulting in a loss of energy transfer to the streptavidin-XL665 conjugate.
Following the 384-well enzymatic phosphorylation reaction outlined above, the detection of phosphorylated heterocopolymeric, biotinylated polypeptide was performed by dilution of the stopped reaction mixture 2-fold with 50 mM HEPES (pH 7.0), 500 mM KF, 0.1% BSA, streptavidin-XL665 (20 nM), and anti-phosphotyrosine antibody PT66-crypate conjugate (6.4 ng/well) and incubation for four hours at ambient temperature. Plates were read in an Envision plate reader (PerkinElmer Life and Analytical Sciences, Inc., MA) simultaneously at 620 nm and 665 nm to obtain signal ratios of 665 nm/620 nm. Results of energy transfer were expressed as signal ratios of 665 nm/620 nm. Negative controls were samples without recombinant c-MET or c-MET treated with 100 mM EDTA.
For determination of IC50 values of particular compounds of the invention, eight serially diluted compound concentrations (at 1:3.16 dilution) were used in the assay. Controls without a compound of the invention or with a reference compound were run in parallel in the same assay plate.

T1 sequence (P08581 960-1390): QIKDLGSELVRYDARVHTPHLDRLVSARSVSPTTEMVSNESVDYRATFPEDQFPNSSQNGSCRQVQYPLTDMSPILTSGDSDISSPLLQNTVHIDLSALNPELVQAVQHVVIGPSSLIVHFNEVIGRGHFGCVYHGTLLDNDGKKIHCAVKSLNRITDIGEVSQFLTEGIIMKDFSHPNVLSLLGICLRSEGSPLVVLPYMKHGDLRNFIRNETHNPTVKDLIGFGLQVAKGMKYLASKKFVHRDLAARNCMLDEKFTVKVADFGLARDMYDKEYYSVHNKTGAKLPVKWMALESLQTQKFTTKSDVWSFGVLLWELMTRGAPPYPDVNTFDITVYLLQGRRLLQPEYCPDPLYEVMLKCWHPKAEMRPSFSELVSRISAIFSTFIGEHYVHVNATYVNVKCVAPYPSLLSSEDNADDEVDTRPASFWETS

Structure (SMILES)	IC50
CC1=C(C#N)C(c2ccc3[nH]nc(C(=O)NCCC4CCCN4C)c3c2)C(C#N)=C(C)N1 (stereo not shown) [compound 125, 5-(3,5-dicyano-1,4-dihydro-2,6-dimethyl-4-pyridinyl)-N-[2-(1-methyl-2-pyrrolidinyl)ethyl]-1H-indazole-3-carboxamide]	< 0.1 µM
CC1=C(C#N)C(c2ccc3[nH]nc(NCc4ccc([N+](=O)[O-])cc4)c3c2)C(C#N)=C(C)N1 [compound 127, 1,4-dihydro-2,6-dimethyl-4-[3-[[(4-nitrophenyl)methyl]amino]-1H-indazol-5-yl]-3,5-pyridinedicarbonitrile]	0.5 to 2.5 µM
CC1=C(C#N)C(c2ccc3[nH]nc(NCc4ccc(N)cc4)c3c2)C(C#N)=C(C)N1 [compound 128, 4-[3-[[(4-aminophenyl)methyl]amino]-1H-indazol-5-yl]-1,4-dihydro-2,6-dimethyl-3,5-pyridinedicarbonitrile]	< 0.1 µM
CC1=C(C#N)C(c2ccc3[nH]nc(NC(=O)c4ccccc4)c3c2)C(C#N)=C(C)N1 [compound 129, N-[5-(3,5-dicyano-1,4-dihydro-2,6-dimethyl-4-pyridinyl)-1H-indazol-3-yl]-benzamide]	< 0.1 µM
CC1=C(C#N)C(c2ccc3[nH]nc(CN4CCN(c5ccncc5)CC4)c3c2)C(C#N)=C(C)N1 [compound 130, 1,4-dihydro-2,6-dimethyl-4-[3-[[4-(4-pyridinyl)-1-piperazinyl]methyl]-1H-indazol-5-yl]-3,5-pyridinedicarbonitrile]	0.5 to 2.5 µM
CC1=C(C#N)C(c2ccc3[nH]nc(NCC4CCN(C(=O)OC(C)(C)C)CC4)c3c2)C(C#N)=C(C)N1 [compound 131, 4-[[[5-(3,5-dicyano-1,4-dihydro-2,6-dimethyl-4-pyridinyl)-1H-indazol-3-yl]-amino]methyl]-1-piperidinecarboxylic acid 1,1-dimethylethyl ester]	0.5 to 2.5 µM
CC1=C(C#N)C(c2ccc3[nH]nc(NCC4CCNCC4)c3c2)C(C#N)=C(C)N1 [compound 133, 1,4-dihydro-2,6-dimethyl-4-[3-[(4-piperidinylmethyl)amino]-1H-indazol-5-yl]-3,5-pyridinedicarbonitrile]	< 0.1 µM
COC(=O)c1ccc(CNc2n[nH]c3ccc(C4C(C#N)=C(C)NC(C)=C4C#N)cc23)cc1 [compound 135, 4-[[[5-(3,5-dicyano-1,4-dihydro-2,6-dimethyl-4-pyridinyl)-1H-indazol-3-yl]-amino]methyl]-benzoic acid methyl ester]	< 0.1 µM
CC1=C(C#N)C(c2ccc3[nH]nc(NCc4ccc(C(=O)O)cc4)c3c2)C(C#N)=C(C)N1 [compound 136, 4-[[[5-(3,5-dicyano-1,4-dihydro-2,6-dimethyl-4-pyridinyl)-1H-indazol-3-yl]-amino]methyl]-benzoic acid]	< 0.1 µM
CC1=C(C#N)C(c2ccc3[nH]nc(-c4ccc(N5CCN(C)CC5)nc4)c3c2)C(C#N)=C(C)N1 [compound 137, 1,4-dihydro-2,6-dimethyl-4-[3-[6-(4-methyl-1-piperazinyl)-3-pyridinyl]-1H-indazol-5-yl]-3,5-pyridinedicarbonitrile]	< 0.1 µM
CC1=C(C#N)C(c2ccc3[nH]nc(-c4ccc(CN(C)C)cc4)c3c2)C(C#N)=C(C)N1 [compound 138, 4-[3-[4-[(dimethylamino)methyl]phenyl]-1H-indazol-5-yl]-1,4-dihydro-2,6-dimethyl-3,5-pyridinedicarbonitrile]	< 0.1 µM
CC1=C(C#N)C(c2ccc3[nH]nc(C#CCN(C)C)c3c2)C(C#N)=C(C)N1 [compound 139, 4-[3-[3-(dimethylamino)-1-propynyl]-1H-indazol-5-yl]-1,4-dihydro-2,6-dimethyl-3,5-pyridinedicarbonitrile]	< 0.1 µM
CC1=C(C#N)C(c2ccc3[nH]nc(-c4ccc(N5CCN(C)CC5)cc4)c3c2)C(C#N)=C(C)N1 [compound 140, 1,4-dihydro-2,6-dimethyl-4-[3-[4-(4-methyl-1-piperazinyl)phenyl]-1H-indazol-5-yl]-3,5-pyridinedicarbonitrile]	< 0.1 µM
CCN(CC)CC(=O)Nc1n[nH]c2ccc(C3C(C#N)=C(C)NC(C)=C3C#N)cc12 [compound 141, N-[5-(3,5-dicyano-1,4-dihydro-2,6-dimethyl-4-pyridinyl)-1H-indazol-3-yl]-2-(diethylamino)-acetamide]	0.5 to 2.5 µM
CC1=C(C#N)C(c2ccc3[nH]nc(-c4nc5ccccc5[nH]4)c3c2)C(C#N)=C(C)N1 [compound 142, 4-[3-(1H-benzimidazol-2-yl)-1H-indazol-5-yl]-1,4-dihydro-2,6-dimethyl-3,5-pyridinedicarbonitrile]	< 0.1 µM
CON(C)C(=O)c1n[nH]c2ccc(C3C(C#N)=C(C)NC(C)=C3C#N)cc12 [compound 143, 5-(3,5-dicyano-1,4-dihydro-2,6-dimethyl-4-pyridinyl)-N-methoxy-N-methyl-1H-indazole-3-carboxamide]	< 0.1 µM
CC1=C(C#N)C(c2ccc3[nH]nc(CO)c3c2)C(C#N)=C(C)N1 [compound 144, 1,4-dihydro-4-[3-(hydroxymethyl)-1H-indazol-5-yl]-2,6-dimethyl-3,5-pyridinedicarbonitrile]	< 0.1 µM
CC1=C(C#N)C(c2ccc3[nH]nc(C=O)c3c2)C(C#N)=C(C)N1 [compound 145, 4-(3-formyl-1H-indazol-5-yl)-1,4-dihydro-2,6-dimethyl-3,5-pyridinedicarbonitrile]	< 0.1 µM
CNC(=O)Nc1n[nH]c2ccc(C3C(C#N)=C(C)NC(C)=C3C#N)cc12 [compound 147, N-[5-(3,5-dicyano-1,4-dihydro-2,6-dimethyl-4-pyridinyl)-1H-indazol-3-yl]-N′-methyl-urea]	< 0.1 µM
CC1=C(C#N)C(c2ccc3[nH]nc(Cl)c3c2)C(C#N)=C(C)N1 [compound 148, 4-(3-chloro-1H-indazol-5-yl)-1,4-dihydro-2,6-dimethyl-3,5-pyridinedicarbonitrile]	< 0.1 µM
CC1=C(C#N)C(c2ccc3[nH]nc(/C=N/O)c3c2)C(C#N)=C(C)N1 [compound 149, 1,4-dihydro-4-[3-[(E)-(hydroxyimino)methyl]-1H-indazol-5-yl]-2,6-dimethyl-3,5-pyridinedicarbonitrile]	< 0.1 µM
CC1=C(C#N)C(c2ccc3[nH]nc(NCc4cnc[nH]4)c3c2)C(C#N)=C(C)N1 [compound 150, 1,4-dihydro-4-[3-[(1H-imidazol-4-ylmethyl)amino]-1H-indazol-5-yl]-2,6-dimethyl-3,5-pyridinedicarbonitrile]	< 0.1 µM
CC1=C(C#N)C(c2ccc3[nH]nc(Br)c3c2)C(C#N)=C(C)N1 [compound 151, 4-(3-bromo-1H-indazol-5-yl)-1,4-dihydro-2,6-dimethyl-3,5-pyridinedicarbonitrile]	< 0.1 µM
CC1=C(C#N)C(c2ccc3[nH]nc(-c4ccc(N5CCN(CCO)CC5)cc4)c3c2)C(C#N)=C(C)N1 [compound 152, 1,4-dihydro-4-[3-[4-[4-(2-hydroxyethyl)-1-piperazinyl]phenyl]-1H-indazol-5-yl]-2,6-dimethyl-3,5-pyridinedicarbonitrile]	< 0.1 µM
CC1=C(C#N)C(c2ccc3[nH]nc(-c4ccc(N5CCN(C(=O)OC(C)(C)C)CC5)cc4)c3c2)C(C#N)=C(C)N1 [compound 155, 4-[4-[5-(3,5-dicyano-1,4-dihydro-2,6-dimethyl-4-pyridinyl)-1H-indazol-3-yl]-phenyl]-1-piperazinecarboxylic acid 1,1-dimethylethyl ester]	< 0.1 µM
